Results on three compounds are retold here after patent US4835182A (priority 1987, dated 1989).

For series [1] the following is noted: in vivo.
Series [2] is described as follows: in vivo. To be noted: iv, 10 mg/kg.
Series [3] can be described thus: in vivo.
For series [4] the following is noted: background; cited from earlier work.

Like-named read-outs stand apart in the source and are kept apart here.

Consider `CC(C)(C)OC(=O)CCCc1ccc(N(CCCl)CCCl)cc1` [tertiary butyl chlorambucil], for which the “increase of brain/plasma concentration ratio of active drug versus chlorambucil” value in series [1] amounted to 4100%. For the same compound, the Kp in the series “in vivo [2]” and in “in vivo [3]” was 0.7 throughout.
Take `N[C@@H](Cc1ccc(N(CCCl)CCCl)cc1)C(=O)O` [melphalan]: the Kp in the series “in vivo [3]” is 0.1. The “entry into the brain” value in series [4] is given as “only minimally enter the brain”.
On to `O=C(O)CCCc1ccc(N(CCCl)CCCl)cc1` [chlorambucil], for which the Kp came out at 0.017 in “in vivo [2]” and 0.02 in “in vivo [3]”.
